Assay results: PubChem BioAssay AID328 (DTP/NCI, 2004)
Several values for one entry are separate records, joined by “and”; a condition that tells them apart may be missing. Identical values can stand only once. Toxic doses and inconclusive results are not listed.

Tested on: BDF1 mice, P388 leukemia ip, median survival T/C
Assay: NCI In Vivo Anticancer Drug Screen. Data for tumor model P388 Leukemia (intraperitoneal) in B6D2F1 (BDF1) mice
Details: endpoint: median survival time, higher = longer survival
Procedure, shortened: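 Mice carrying the transplantable tumour receive compound or vehicle. Survival is followed in each arm, and the treated measure is divided by the vehicle measure.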

[1] = dose: 12.5 mg/kg/injection, schedule: Q04DX003 (ip), vehicle: Klucel (hydroxypropylcellulose) (HPC)
[2] = dose: 25.0 mg/kg/injection, schedule: Q04DX003 (ip), vehicle: Klucel (hydroxypropylcellulose) (HPC)

Question: For CCC(=N\NC(=S)NCCN(C)C)/C(C)=N/NC(=S)NCCN(C)C, which T/C (dose: 0.75 mg/kg/injection, schedule: Q04DX003 (ip), vehicle: saline) is on record?
Answer: Its T/C is 103 % of control.

Question: And the T/C (dose: 1.5 mg/kg/injection, schedule: Q04DX003 (ip), vehicle: saline)?
Answer: Its T/C is 103 % of control.

Question: What about the T/C (dose: 3.0 mg/kg/injection, schedule: Q04DX003 (ip), vehicle: saline) of the same compound?
Answer: The T/C was 97 % of control.

Question: Which results are given for CCC1c2ccc3cc(OC)ccc3c2C(=O)CC1C(=O)O (configuration not stated)?
Answer: T/C (dose: 100.0 mg/kg/injection, schedule: Q04DX003 (sc), vehicle: steriod suspending solution): 113 % of control; T/C (dose: 200.0 mg/kg/injection, schedule: Q04DX003 (sc), vehicle: steriod suspending solution): 100 % of control; T/C (dose: 400.0 mg/kg/injection, schedule: Q04DX003 (sc), vehicle: steriod suspending solution): 95 % of control

Question: For CN(C)c1ccc(C=O)c(Oc2ccccc2)c1, which T/C [1] is on record?
Answer: The T/C was 91 % of control.

Question: And the T/C [2]?
Answer: Its T/C is 108 % of control.

Question: And the T/C (dose: 50.0 mg/kg/injection, schedule: Q04DX003 (ip), vehicle: Klucel (hydroxypropylcellulose) (HPC))?
Answer: Its T/C is 91 % of control.

Question: And the T/C (dose: 200.0 mg/kg/injection, schedule: Q04DX003 (ip), vehicle: Klucel (hydroxypropylcellulose) (HPC))?
Answer: The T/C was 100 % of control.

Question: And the T/C (dose: 400.0 mg/kg/injection, schedule: Q04DX003 (ip), vehicle: Klucel (hydroxypropylcellulose) (HPC))?
Answer: The T/C was 100 % of control.

Question: CCCC(CC)C(C(=O)OCC)C1=NC(C)(C)CC(C)O1 (configuration not stated) was tested. Which T/C (dose: 12.5 mg/kg/injection, schedule: Q01DX001 (ip), vehicle: saline sonified) did it give?
Answer: The T/C was 100 % of control.

Question: And the T/C (dose: 25.0 mg/kg/injection, schedule: Q01DX001 (ip), vehicle: saline sonified)?
Answer: The T/C was 100 % of control.

Question: And the T/C (dose: 50.0 mg/kg/injection, schedule: Q01DX001 (ip), vehicle: saline sonified)?
Answer: The T/C was 100 % of control.

Question: Which T/C (dose: 32.0 mg/kg/injection, schedule: Q01DX009 (ip), vehicle: saline) does the source give for Nc1nc([Se])c2ncn(C3OC(CO)C(O)C3O)c2n1 (configuration not stated) here?
Answer: The T/C was 100 % of control.

Question: What does the source list for Nc1nc(=S)c2[nH]c(N=Nc3ccc(S(N)(=O)=O)cc3)nc2[nH]1?
Answer: T/C [1]: 166 % of control; T/C [2]: 156 % of control

Question: Which results are given for COC(=O)CN(c1c(C)cc(C)c(N)c1C)S(=O)(=O)c1ccccc1?
Answer: T/C (dose: 100.0 mg/kg/injection, schedule: Q01DX001 (ip), vehicle: Klucel (hydroxypropylcellulose) (HPC)): 91 % of control; T/C (dose: 400.0 mg/kg/injection, schedule: Q01DX001 (ip), vehicle: Klucel (hydroxypropylcellulose) (HPC)): 100 % of control

Question: Nc1nnc2cc(F)ccc2n1 was tested. Which T/C (dose: 50.0 mg/kg/injection, schedule: Q01DX009 (ip), vehicle: Klucel (hydroxypropylcellulose) (HPC)) did it give?
Answer: The T/C was 100 % of control.

Question: And the T/C (dose: 100.0 mg/kg/injection, schedule: Q01DX009 (ip), vehicle: Klucel (hydroxypropylcellulose) (HPC))?
Answer: The T/C was 112 % of control.

Question: What about the T/C (dose: 200.0 mg/kg/injection, schedule: Q01DX009 (ip), vehicle: Klucel (hydroxypropylcellulose) (HPC)) of the same compound?
Answer: Its T/C is 102 % of control.

Question: For CCN(CC)CCOC(=O)c1ccc(OCCOc2ccc(C(C)(C)CC(C)(C)C)cc2)c([N+](=O)[O-])c1, which T/C (dose: 75.0 mg/kg/injection, schedule: Q04DX003 (ip), vehicle: saline sonified) is on record?
Answer: Its T/C is 110 % of control.

Question: And the T/C (dose: 150.0 mg/kg/injection, schedule: Q04DX003 (ip), vehicle: saline sonified)?
Answer: Its T/C is 110 % of control.

Question: What about the T/C (dose: 300.0 mg/kg/injection, schedule: Q04DX003 (ip), vehicle: saline sonified) of the same compound?
Answer: The T/C was 105 % of control.

Question: How did the T/C (dose: 25.0 mg/kg/injection, schedule: Q01DX009 (ip), vehicle: saline with Tween-80) turn out when COc1cc2c(cc1OC)C(c1ccc(N=Cc3ccc(Cl)c(Cl)c3)cc1)N(C(=S)Nc1cc(Cl)ccc1Cl)CC2 (configuration not stated) was run?
Answer: The T/C was 104 % of control.

Question: What about the T/C (dose: 50.0 mg/kg/injection, schedule: Q01DX009 (ip), vehicle: saline with Tween-80) of the same compound?
Answer: The T/C was 93 % of control and 97 % of control.

Question: And the T/C (dose: 100.0 mg/kg/injection, schedule: Q01DX009 (ip), vehicle: saline with Tween-80)?
Answer: The T/C was 95 % of control.

Question: And the T/C (dose: 200.0 mg/kg/injection, schedule: Q01DX009 (ip), vehicle: saline with Tween-80)?
Answer: The T/C was 89 % of control.

Question: What does the source list for OCC1OCC(O)C(O)C1O (configuration not stated)?
Answer: T/C (dose: 12.5 mg/kg/injection, schedule: Q01DX010 (ip), vehicle: saline): 91 % of control; T/C (dose: 25.0 mg/kg/injection, schedule: Q01DX010 (ip), vehicle: saline): 108 % of control; T/C (dose: 32.0 mg/kg/injection, schedule: Q03HX024 (ip), vehicle: saline): 95 % of control; T/C (dose: 50.0 mg/kg/injection, schedule: Q01DX010 (ip), vehicle: saline): 108 % of control; T/C (dose: 64.0 mg/kg/injection, schedule: Q03HX024 (ip), vehicle: saline): 87 % of control; T/C (dose: 100.0 mg/kg/injection, schedule: Q01DX010 (ip), vehicle: saline): 91 % of control; T/C (dose: 128.0 mg/kg/injection, schedule: Q03HX024 (ip), vehicle: saline): 100 % of control; T/C (dose: 128.0 mg/kg/injection, schedule: Q04DX003 (ip), vehicle: saline): 87 % of control and 104 % of control; T/C (dose: 200.0 mg/kg/injection, schedule: Q01DX010 (ip), vehicle: saline): 110 % of control; T/C (dose: 256.0 mg/kg/injection, schedule: Q04DX003 (ip), vehicle: saline): 91 % of control and 100 % of control; T/C (dose: 512.0 mg/kg/injection, schedule: Q04DX003 (ip), vehicle: saline): 90 % of control; T/C (dose: 800.0 mg/kg/injection, schedule: Q01DX010 (ip), vehicle: saline): 115 % of control; T/C (dose: 1024.0 mg/kg/injection, schedule: Q04DX003 (ip), vehicle: saline): 100 % of control
